These results are taken from US9371519B2, “Complex type sugar chain hydrolase” (National Institute of Advanced Industrial Science and …, priority 2011, dated 2016).

By Km is commonly meant the substrate concentration at which the rate is half of its maximum. As usually defined, the Vmax is the top rate of the reaction or transport when substrate is in excess.

Test [1] addresses T1, Ogataea minuta endo-β-N-acetylglucosaminidase Endo-Om, wild type (recombinant, purified), SEQ ID NO: 1 (Ogataea minuta, UniProt R4WHQ8).
T1 sequence (R4WHQ8 1-772): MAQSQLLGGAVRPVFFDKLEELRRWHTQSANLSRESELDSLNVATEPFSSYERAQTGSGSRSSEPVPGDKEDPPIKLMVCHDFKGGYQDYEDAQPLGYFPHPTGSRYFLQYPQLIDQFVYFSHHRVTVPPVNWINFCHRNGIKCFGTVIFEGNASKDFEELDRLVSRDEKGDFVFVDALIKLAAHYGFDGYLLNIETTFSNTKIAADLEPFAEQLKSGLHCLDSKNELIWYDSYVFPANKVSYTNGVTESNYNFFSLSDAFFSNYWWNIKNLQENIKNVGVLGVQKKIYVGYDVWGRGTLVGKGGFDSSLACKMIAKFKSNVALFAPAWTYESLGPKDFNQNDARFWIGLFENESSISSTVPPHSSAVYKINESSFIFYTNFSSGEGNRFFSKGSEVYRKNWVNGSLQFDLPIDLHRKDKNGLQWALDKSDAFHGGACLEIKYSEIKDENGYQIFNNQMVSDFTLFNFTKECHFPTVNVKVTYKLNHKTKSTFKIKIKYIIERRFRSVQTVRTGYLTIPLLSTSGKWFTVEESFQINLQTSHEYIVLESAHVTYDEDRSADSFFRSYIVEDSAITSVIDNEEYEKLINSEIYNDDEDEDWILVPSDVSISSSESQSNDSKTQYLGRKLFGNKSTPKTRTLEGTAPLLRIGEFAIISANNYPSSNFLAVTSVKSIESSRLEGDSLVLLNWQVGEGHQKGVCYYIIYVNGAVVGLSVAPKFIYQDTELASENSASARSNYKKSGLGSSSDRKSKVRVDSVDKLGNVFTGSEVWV
In words: Km and Vmax for NGA2-Asn-Fmoc hydrolysis, purified Endo-Om (HPLC). The class given is biochemical. The procedure: (§1) The enzyme activity was measured as follows. A reaction solution (total volume: 10 μl) containing 100 mM of a sodium acetate buffer (pH 5.3) at the final concentration, 0.5 M NaCl, 10 μM of a Fmoc-labeled biantennary complex type sugar chain (NGA2-Asn-Fmoc), and an Endo-Om crude enzyme solution was incubated at 50° C. for 1 hour, and heated at 95° C. for 5 minutes, thereby stopping the enzyme reaction. The reaction solution was subjected to HPLC, and the enzymatic activity was calculated from the peak area ratio between the NGA2-Asn-Fmoc as the substrate and its hydrolysate. The column was Asahipak NH2P-50 4E (4.6.250 mm, Shodex), and the solvents were acetonitrile (solvent A) and 200 mM of TEAA (pH 7.0, GLEN RESEARCH: solvent B). Isocratic elution was carried out at a flow rate of 1.0 ml/min, and the solvent B: 43%, and detection was carried out using a fluorescence detector (excitation wavelength 265 nm, and fluorescence wavelength 315 nm). The activity hydrolyzing 1 vol of NGA2-Asn-Fmoc in 1 minute under the above-described reaction conditions was defined as 1 Unit of the enzymatic activity of Endo-Om.
The properties of Endo-Om were studied using a purified enzyme solution. According to the method described in Example 4, the Endo-Om crude enzyme solution prepared from 100 ml culture was substituted with an equilibration buffer (20 mM sodium phosphate buffer (pH 7.4), 0.5 M NaCl, 0.5 mM PMSF, 50 mM imidazole) by dialysis. […] According to the method described in Example 4, the activity of the Endo-Om purified enzyme solution when the substrate concentration was 1 mM was measured, and the specific activity was calculated. In addition, activity measurement was carried out using NGA2-Asn-Fmoc at different concentrations as the substrates, and Km and Vmax were calculated. For comparison, the specific activity, Km, and Vmax of the commercially available Endo-M were calculated by the same method. […]

The target in test [2] is T2, Mucor hiemalis endo-β-N-acetylglucosaminidase Endo-M (commercially available) (Mucor hiemalis, UniProt Q9C1S6).
T2 sequence (Q9C1S6 1-744): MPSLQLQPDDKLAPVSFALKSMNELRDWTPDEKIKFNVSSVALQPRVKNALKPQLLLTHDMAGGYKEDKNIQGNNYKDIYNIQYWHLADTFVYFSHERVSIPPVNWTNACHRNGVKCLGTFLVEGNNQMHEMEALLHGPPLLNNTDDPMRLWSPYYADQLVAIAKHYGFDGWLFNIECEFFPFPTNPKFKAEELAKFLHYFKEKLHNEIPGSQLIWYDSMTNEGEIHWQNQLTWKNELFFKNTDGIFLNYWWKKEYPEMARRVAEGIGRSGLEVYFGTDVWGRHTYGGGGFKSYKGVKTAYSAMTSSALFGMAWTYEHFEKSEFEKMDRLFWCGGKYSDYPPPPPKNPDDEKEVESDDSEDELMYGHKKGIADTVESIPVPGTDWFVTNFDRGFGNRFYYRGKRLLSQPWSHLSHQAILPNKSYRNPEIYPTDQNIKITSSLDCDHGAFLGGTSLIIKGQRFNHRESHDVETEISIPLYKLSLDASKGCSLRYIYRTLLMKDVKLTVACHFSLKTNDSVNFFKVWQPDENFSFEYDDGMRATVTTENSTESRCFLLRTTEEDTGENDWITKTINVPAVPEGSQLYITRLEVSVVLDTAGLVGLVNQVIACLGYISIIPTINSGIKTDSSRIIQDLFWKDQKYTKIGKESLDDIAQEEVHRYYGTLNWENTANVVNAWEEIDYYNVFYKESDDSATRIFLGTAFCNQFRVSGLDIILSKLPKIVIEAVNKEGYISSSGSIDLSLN
As to the kind of experiment: Km and Vmax for NGA2-Asn-Fmoc hydrolysis, commercially available Endo-M (HPLC). The settings on record: sodium acetate pH 6.0, 0.5 M NaCl, 50° C. The class given is biochemical. The procedure:
as §1, with “The column was Asahipak NH2P-50 4E (4.6.250 mm, Shodex), and the solvents were acetonitrile (solvent A) and 200 mM of TEAA (pH 7.0, GLEN RESEARCH: solvent B).” left out, “The activity hydrolyzing 1 vol of NGA2-Asn-Fmoc in 1 minute under the above-described reaction conditions was defined as 1 Unit of the enzymatic activity of Endo-Om.” left out
The properties of Endo-Om were studied using a purified enzyme solution. […] According to the method described in Example 4, the activity of the Endo-Om purified enzyme solution when the substrate concentration was 1 mM was measured, and the specific activity was calculated. In addition, activity measurement was carried out using NGA2-Asn-Fmoc at different concentrations as the substrates, and Km and Vmax were calculated. For comparison, the specific activity, Km, and Vmax of the commercially available Endo-M were calculated by the same method. […]

`CC(=O)N[C@@H]1[C@@H](O)[C@H](O[C@@H]2O[C@H](CO)[C@@H](O[C@@H]3O[C@H](CO[C@H]4O[C@H](CO)[C@@H](O)[C@H](O)[C@@H]4O[C@@H]4O[C@H](CO)[C@@H](O)[C@H](O)[C@H]4NC(C)=O)[C@@H](O)[C@H](O[C@H]4O[C@H](CO)[C@@H](O)[C@H](O)[C@@H]4O[C@@H]4O[C@H](CO)[C@@H](O)[C@H](O)[C@H]4NC(C)=O)[C@@H]3O)[C@H](O)[C@H]2NC(C)=O)[C@@H](CO)O[C@H]1NC(=O)C[C@H](NC(=O)OCC1c2ccccc2-c2ccccc21)C(=O)O` [NGA2-Asn-Fmoc]: the Km in test [1] (Endo-Om, sodium acetate pH 5.3, 0.5 M NaCl, 50° C., NGA2-Asn-Fmoc at different concentrations) stood at 5.54 mM. Besides, the Vmax in test [1] (Endo-Om, sodium acetate pH 5.3, 0.5 M NaCl, 50° C., unit as printed in b33 and b95) was 3.88 µmol/min/mg; in test [2], 0.070 µmol/min/mg. In addition, the “Vmax of Endo-Om relative to Vmax of Endo-M” value in test [1] (ratio Endo-Om / Endo-M) was determined as 55 times.
